No end group written: not given here.
Target: T1, GPR39 (Homo sapiens, UniProt O43194)
T1 construct: expressed in transfected cells; host or cells: CHO-K1 (transient, FuGENE6; pIRES-eGFP co-transfected)
T1 sequence (O43194 1-453): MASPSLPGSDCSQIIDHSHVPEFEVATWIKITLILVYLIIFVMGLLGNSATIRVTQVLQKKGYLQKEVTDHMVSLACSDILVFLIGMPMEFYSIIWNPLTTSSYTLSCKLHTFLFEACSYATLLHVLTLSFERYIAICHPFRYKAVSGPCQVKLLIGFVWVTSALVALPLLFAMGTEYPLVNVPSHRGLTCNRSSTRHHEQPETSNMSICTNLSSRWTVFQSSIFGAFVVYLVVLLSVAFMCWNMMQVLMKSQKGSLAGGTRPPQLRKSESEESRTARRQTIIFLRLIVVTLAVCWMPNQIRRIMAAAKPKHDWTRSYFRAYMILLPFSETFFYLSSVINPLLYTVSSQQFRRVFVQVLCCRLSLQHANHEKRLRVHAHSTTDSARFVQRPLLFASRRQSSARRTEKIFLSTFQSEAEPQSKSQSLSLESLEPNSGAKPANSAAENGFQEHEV
Assay: ACEA RT-CES cell impedance, GPR39 transfected CHO-K1 cells
Format: cell-based
Settings: P74C13V 10 uM, H2 Relaxin 1 uM, FIG. 12
From the text: ACEA RT-CES screen is a noninvasive and label-free assay for GPCRs that can be used with both engineered and nonengineered cell lines. The assay is based on using cell-electrode impedance to measure minute changes in cellular morphology as a result of ligand-dependent GPCR activation and is described in Naichen Yu, et al., Anal. Chem., 78 (1), 35-43, 2006. 10.1021/ac051695v S0003-2700(05)01695-1. The Rho family of small GTPases, which include Rho, Rac, and CDC42, are well-characterized effectors of oncogenes, growth factor and adhesion-mediated signaling pathways and are not classically thought of as being key effectors for GPCRs. […] Since GPCRs couple to the actin cytoskeletal network and induce very defined morphological changes, it is possible to harness this information as a functional and biologically relevant readout for GPCRs.
ACEA biosciences; has designed electronic cell sensor arrays embedded in the bottom of the well of microtiter plates that are capable of measuring minute changes in cell morphology. […] The main advantages offered by using cell-substrate impedance and cell morphology as a readout are that both exogenously expressed and endogenous receptors can be assayed without the need for engineering the cell with promiscuous G proteins and reporters or labeling the cells with dyes. […]

| effect on cell impedance (normalized cell index) | Substance |
| --- | --- |
| moderate yet visible effect | GQKGQVGPPGAAVRRAYAAFSVGRRAYAAFSV-OH [Peptide P74C13V] |
| moderate yet visible effect | H2 Relaxin: H2 Relaxin (ACS), positive control, known ligand of LGR7 (RXFP1) [reference compound] |

Reference: patent US8492329B2, “Bioactive peptides and methods of using same” (Compugen Ltd., priority 2007, dated 2013)
